According to patent US20090299036A1, “AGENT FOR PREVENTING ARTERIOSCLEROSIS, AGENT FOR SUPPRESSING VASCULAR INTIMAL THICKENING AND AGENT FOR IMPROVING VASCULAR ENDOTHELIAL FUNCTION” (Calpis Co, Ltd, priority 2006, published 2009):

Columns and labels:
arteriosclerosis = details: Non-patent Publication 5; cited from earlier work
[1] = system: thoracic aorta of Wistar rats; test: Endothelium-dependent vasodilator response of aorta ring from L-NAME-treated rats (Magnus apparatus); format: in vivo, rat
Experimental: Wistar rats (7 weeks of age, male) as the test animals were acclimatized for one week. A nitric oxide synthesis inhibitor, NG-nitro-L-arginine methyl ester hydrochloride (L-NAME, manufactured by SIGMA-ALDRICH CORP.) was dissolved in drinking water at the concentration of 1 g/L, and similarly, L-NAME and Val-Pro-Pro synthesized above at 1 g/L and 0.3 g/L, respectively, and L-NAME and Ile-Pro-Pro synthesized above at 1 g/L and 0.3 g/L, respectively. The rats were allowed free access to the prepared drinking water for one week. As a control, only the drinking water without L-NAME dissolved therein was given to a non-treatment group.
Then, the rats were subjected to fatal exsanguination under diethyl ether anesthesia. The thoracic aorta was taken out, cut into 2 mm long, and made into an aorta ring. The ring was set in a Magnus apparatus (product name “micro tissue organ bath MTOB-1Z”, manufactured by LABO SUPPORT CO., LTD.) filled with 5 ml of Tyrode's solution (composition: 158.3 mM of NaCl, 4.0 mM of KCl, 2.0 mM of CaCl2, […] of MaCl2, 0.42 mM of NaH2PO4, 10.0 mM of NaHCO3, and 5.6 mM of glucose; pH 7.4, 37±0.5° C.), and allowed to equilibrate with the resting tension of 2.0 g. The aorta ring was then allowed to constrict with 1 μM of phenylephrine. […] The degree of vasodilation by the response was determined as a ratio to the constriction with 1 μM of phenylephrine. […]

For `CCOC(=O)[C@H](CCc1ccccc1)N[C@@H](C)C(=O)N1CCC[C@H]1C(=O)O` [enalapril], the arteriosclerosis inhibitory effect (arteriosclerosis) is given as “does not result in an arteriosclerosis inhibitory effect”, the Degree of vasodilation ([1]; drinking water for one week: L-NAME 1 g/L, peptide 0.3 g/L, enalapril 0.5 mg/L, 10 μM acetylcholine, ratio to constriction with 1 μM phenylephrine, group average) is given as 31.6% and the “degree of vasodilation compared to the group given only L-NAME” value ([1]; given together with L-NAME) is given as “no significant difference”.
